{"source": "patent US12558376B2", "about": "“Tissue repair by activated cells” (TECHNION RESEARCH & DEVELOPMENT FOUNDATION LIMITED, priority 2018, dated 2026)", "key": {"[1]": {"test_system": "mesenchymal stem cells (MSCs)", "experiment": "Cytokine array of MSC conditioned medium (secretome)", "type": "cell-based, human", "details": "gemcitabine-activated vs untreated MSCs", "experimental": "Human bone marrow MSCs (LONZA, Switzerland) were cultured in minimum essential medium-alpha (αMEM) supplemented with 10% FBS 1% L-glutamine, 1% sodium-pyruvate, and 1% streptomycin. Medium was replaced every 3 days, and cells were maintained in culture for up to 7 passages.\nAfter 72 hours, CM was collected.\nThe signals corresponding to each factor in the array were quantified by densitometry analysis."}, "[2]": {"test_system": "PANC1 tumors", "experiment": "Subcutaneous PANC1 tumors treated with gemcitabine: MSC homing", "type": "in vivo", "details": "PANC1 tumors in SCID mice, gemcitabine 500 mg/kg, after 72 hours; for MSC homing to tumors and proximity to CSCs (immunostaining): vs untreated control", "experimental": "Eight-to-ten-week-old SCID mice were subcutaneously implanted with PANC1 cells (n=5 mice/group). […] Nuclei were stained with DAPI (blue). Red arrows represent CSCs whereas white arrows represent MSCs. Scale bar, 100 μm. FIG. 1B: Right Left side is a graph showing the distance between MSCs and CSCs as was measured and plotted (n>15 fields/group) and FIG. 1B left-right side is a graph showing the percentage of MSCs in tumor single cell suspensions was quantified by flow cytometry. […] After 3 days, the percentage of TICs in culture was assessed by flow cytometry. The use of animals and experimental protocols were approved by the Animal Care and Use Committee of the Technion. Human PANC1 (5×10^6 cells) were subcutaneously injected into the flank of eight-to-ten-week-old CB.17 female SCID mice (Harlan, Israel). Tumor size was assessed regularly with Vernier calipers using the formula width^2×length×0.5. […] Tumors or […] were embedded in […], Japan) and subsequently frozen at -80° C. […] Sections were fixed in cold acetone for 15 minutes. CSCs were stained with PE-conjugated antibodies against human prominin-1 (CD133, 1:250, Macs MiltenyiBiotec). […] Tumor sections were analyzed with a camera attached to an inverted microscope (Leica CTR 6000) using Leica Application suite Version 3.4.0 software or a LSM 700 Zeiss confocal microscope (Zeiss, Germany). Nuclei were stained with DAPI (Electron Microscopy Sciences, PA, USA)."}}}
{"smiles": "Nc1ccn([C@@H]2O[C@H](CO)[C@@H](O)C2(F)F)c(=O)n1", "note": "[gemcitabine]", "values": [{"measurement": "CXCL10 secretion in conditioned medium of MSCs", "setting": "[1]", "result": "highly elevated"}, {"measurement": "recruitment of MSCs to pancreatic tumors (percentage of MSCs, flow cytometry)", "setting": "[2]", "result": "massive recruitment of MSCs"}, {"measurement": "MSC homing to tumors and proximity to CSCs (immunostaining)", "setting": "[2]", "result": "MSCs home to tumors and locate in close proximity to CSCs"}, {"measurement": "MSC homing to tumors and proximity to CSCs (immunostaining)", "setting": "[2]; listed as Gemcitabine", "result": "promotes MSCs homing to tumors"}]}
